Experimental data published in patent publication US20260207618A1, “PYRIMIDINE CARBOXAMIDE COMPOUNDS” (Acrivon Therapeutics, Inc., priority 2022, published 2026).

Legend:
[1] = test system: Cdk1 phosphorylated on tyrosine 15; assay: High-content imaging of pCdk1 Y15 by immunofluorescence in ACHN cells; format: cell-based; conditions: Homo sapiens, high-content imaging (IF), 4 h, 7 to 5000 nM, read-out: CDK1 Tyr15 Phosphorylation EC50 (IC50)
Method: ACHN renal cell carcinoma cell line (ATCC) was cultured in Minimum Essential Medium Eagle supplemented with 10% fetal calf serum (Sigma), 1% Penicillin-Streptomycin and 10 mM HEPES buffer (HyClone). Cell cultures were kept in a humidified incubator at 37° C. and 5% CO2. Cells were routinely tested for Mycoplasma contamination.
High-content imaging of ACHN renal cell carcinoma cells was used for quantification of CDK1 phosphorylated on tyrosine 15 by immunofluorescence (“IF”). 20 000 cells per well were seeded in tissue culture treated 96 well plates and treated with compounds at concentrations ranging from 7 to 5000 nM for 4 h. Cells were fixated for 15 minutes in 4% paraformaldehyde solution, washed in PBS and permeabilized using 0.2% Triton X-100. Blocking was performed for 1 h at RT using Blocker FL Fluorescent Blocking Buffer (Thermo Scientific), thereafter cells were incubated with primary antibody (rabbit anti-pCDK1 Y^15, #4539, Cell Signaling Technology) at 4° C. ON. Alexa Fluor Plus 647 labelled goat anti-rabbit (A32733. Thermo Scientific) was used as secondary antibody. After washing in PBS, nuclei were stained with DAPI solution for 10 min at RT, protected from light. Cells were imaged using an ImageXpress Pico automated imaging system and CellReporter Xpress software (Molecular Devices). The percentage cells with nuclear positivity for pCdk1 Y^15 compared to DMSO control was determined for each well and drug dose response curves and EC50 values were calculated and visualized using GraphPad Prism.

[2] = biological target: T1, recombinant human Wee1A kinase (Homo sapiens, UniProt P30291); assay: LanthaScreen Europium (Eu) Kinase Binding Assay, Wee1A kinase (TR-FRET tracer displacement); conditions: 30 nM tracer 178, 5 nM Wee1A kinase, 60 minutes at room temperature
T1 construct: full length Wee1A kinase was expressed by baculovirus in insect cells; purchased Invitrogen PV3817; host or cells: insect cells (baculovirus)
Description: We used a LanthaScreen Europium (Eu) Kinase Binding Assay to determine the binding of provided compounds to Wee1A kinase. The assay utilizes an Alexa Fluor 647-labeled ATP competitive kinase tracer that binds to the ATP binding site of a GST-tagged Wee1A kinase, while a europium (Eu) labeled antibody binds to the GST tag. The proximity of fluorescently labeled kinase tracer and europium (Eu) donor fluorophore antibody leads to fluorescence resonance energy transfer (FRET) to the fluorescence label (acceptor) upon excitation of the Eu (donor). Displacement of tracer from the ATP-binding site by a test compound disturbs the proximity between both labels thus lowering the FRET.
This time resolved-FRET binding assay was performed in white 384-well low volume plates (Greiner, cat #784075), at room temperature in kinase buffer A (KBA; Invitrogen cat #PV3189), consisting of 50 mM HEPES-NaOH (pH 7.5), 0.01% Brij-35, 10 mM MgCl2, and 1 mM EGTA. 5 μl of compound (diluted in reaction buffer, to 1% DMSO) were added to various wells in the plate, followed by 5 μl each of recombinant human Wee1A kinase (full length Wee1A kinase was expressed by baculovirus in insect cells using a N-terminal GST tag (MW: 99.1 kDa) (Invitrogen cat #PV3817) and LanthaScreen Eu-anti-GST antibody (Invitrogen, cat #PV5594). After this, 5 μl of kinase tracer 178 (Invitrogen, cat #PV5593) was added to the plate and the plate was incubated for 60 minutes at room temperature. The final assay conditions in each well were: 30 nM tracer 178, 5 nM Wee1A kinase and 2 nM Eu-labeled antibody in total assay volume of 15 μl. An Envision 2104 (Perkin-Elmer) Plate Reader with the following time-resolve fluorescence setting was used for performing LanthaScreen kinase binding assay. • Excitation 320 nm (30 nm bandpass) • Kinase Tracer Emission 665 nm (10 nm bandpass) • LanthaScreen Eu-anti-Tag Antibody Emission 615 nm (10 nm bandpass) • Dichroic Mirror Instrument dependent • Delay Time 100 μs • Integration Time 200 μs
To calculate the emission ratio, the acceptor/tracer emission ([…]) was divided by the antibody/donor emission ([…]) and the average of duplicate measurement was used for calculations. Data plotting, analysis of binding, and curve fitting was done using Excel add-in XLfit version 5.5.0.5 (IDBS, Guildford, United Kingdom).

T1 sequence (P30291 whole entry): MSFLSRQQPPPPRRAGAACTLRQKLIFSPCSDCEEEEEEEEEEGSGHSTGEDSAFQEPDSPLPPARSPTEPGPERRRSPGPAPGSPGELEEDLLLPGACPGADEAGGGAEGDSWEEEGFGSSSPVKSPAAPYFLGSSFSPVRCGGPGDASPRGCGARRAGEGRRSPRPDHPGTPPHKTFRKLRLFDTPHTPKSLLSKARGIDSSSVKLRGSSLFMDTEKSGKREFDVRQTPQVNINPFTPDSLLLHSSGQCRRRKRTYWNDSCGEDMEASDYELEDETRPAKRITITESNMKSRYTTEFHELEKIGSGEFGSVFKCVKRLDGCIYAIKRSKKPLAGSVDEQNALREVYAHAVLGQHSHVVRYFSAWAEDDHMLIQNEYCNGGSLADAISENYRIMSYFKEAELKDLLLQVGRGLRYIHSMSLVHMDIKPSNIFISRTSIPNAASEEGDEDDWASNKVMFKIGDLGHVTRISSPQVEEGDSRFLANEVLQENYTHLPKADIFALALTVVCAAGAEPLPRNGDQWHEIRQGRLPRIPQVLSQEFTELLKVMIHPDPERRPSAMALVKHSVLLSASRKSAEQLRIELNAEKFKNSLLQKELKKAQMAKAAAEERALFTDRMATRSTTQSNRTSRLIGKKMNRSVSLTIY

Row | SMILES | EC50 [1] | IC50 [2]
1 | CCOc1nc(Nc2cnn([C@@H](C)CNC)c2)ncc1C(=O)Nc1c(Cl)cccc1Br [Compound 201, N-(2-bromo-6-chlorophenyl)-2-{1-[(S)-1-methyl-2-(methylamino)ethyl]-4-pyrazolylamino}-4-ethoxy-5-pyrimidinecarboxamide] | > 1000 nM | ≤ 10 nM
2 | COc1nc(Nc2ccc(N3CCN(C)CCC3=O)cc2)ncc1C(=O)Nc1c(Cl)cccc1Cl [Compound 185, N-(2,6-dichlorophenyl)-4-methoxy-2-((4-(4-methyl-7-oxo-1,4-diazepan-1-yl)phenyl)amino)pyrimidine-5-carboxamide] | 100 to 500 nM | ≤ 10 nM
3 | CCc1cccc(Cl)c1NC(=O)c1cnc(Nc2ccc(C3CCN(C)CC3)c(C)c2)nc1OC [Compound 132, N-(2-chloro-6-ethylphenyl)-4-methoxy-2-((3-methyl-4-(1-methylpiperidin-4-yl)phenyl)amino)pyrimidine-5-carboxamide] | 100 to 500 nM | ≤ 10 nM
4 | COc1nc(Nc2ccc([C@H]3CCN(C)C3)c(C)c2)ncc1C(=O)Nc1c(Cl)cccc1Br [Compound 192] | 100 to 500 nM | ≤ 10 nM
5 | COc1nc(Nc2ccc(N3CCC4(CCN(C)CC4)CC3)cc2)ncc1C(=O)Nc1c(Cl)cccc1Br [Compound 209, N-(2-bromo-6-chlorophenyl)-4-methoxy-2-{p-(9-methyl-3,9-diaza-3-spiro[5.5]undecyl)phenylamino}-5-pyrimidinecarboxamide] | 100 to 500 nM | ≤ 10 nM
6 | COc1cc(Nc2ncc(C(=O)Nc3c(Cl)cccc3Br)c(OC)n2)ccc1C1CCN(C)CC1 [Compound 216, N-(2-bromo-6-chlorophenyl)-4-methoxy-2-((3-methoxy-4-(1-methylpiperidin-4-yl)phenyl)amino)pyrimidine-5-carboxamide] | 100 to 500 nM | ≤ 10 nM
7 | COc1nc(Nc2ccc(OCCN(C)C)c(C)c2)ncc1C(=O)Nc1c(Cl)ccc(O)c1C [Compound 149, N-(6-chloro-3-hydroxy-2-methylphenyl)-2-((4-(2-(dimethylamino)ethoxy)-3-methylphenyl)amino)-4-methoxypyrimidine-5-carboxamide] | 100 to 500 nM | ≤ 10 nM
8 | COc1nc(Nc2ccc([C@H]3CCCNC3)c(C)c2)ncc1C(=O)Nc1c(Cl)cccc1Br [Compound 198, (R)—N-(2-bromo-6-chlorophenyl)-4-methoxy-2-((3-methyl-4-(piperidin-3-yl)phenyl)amino)pyrimidine-5-carboxamide] | 100 to 500 nM | ≤ 10 nM
9 | COc1nc(Nc2ccc(C3CCN(C)CC3)c(C)c2)ncc1C(=O)Nc1c(C)ccc(O)c1C [Compound 142, N-(3-hydroxy-2,6-dimethylphenyl)-4-methoxy-2-((3-methyl-4-(1-methylpiperidin-4-yl)phenyl)amino)pyrimidine-5-carboxamide] | ≤ 100 nM | ≤ 10 nM
10 | COc1nc(Nc2ccc(OCCN(C)C)c(C)c2)ncc1C(=O)Nc1c(Cl)cccc1Cl [Compound 143, N-(2,6-dichlorophenyl)-2-((4-(2-(dimethylamino)ethoxy)-3-methylphenyl)amino)-4-methoxypyrimidine-5-carboxamide] | 100 to 500 nM | ≤ 10 nM
11 | COc1nc(Nc2ccc(N3CCCNCC3)cc2)ncc1C(=O)Nc1c(Cl)cccc1Br [Compound 207, 2-((4-(1,4-diazepan-1-yl)phenyl)amino)-N-(2-bromo-6-chlorophenyl)-4-methoxypyrimidine-5-carboxamide] | 100 to 500 nM | ≤ 10 nM
12 | COc1nc(Nc2ccc(C3CCN(C)CC3)c(C)c2)ncc1C(=O)Nc1c(F)cccc1Cl [Compound 113, N-(2-chloro-6-fluorophenyl)-4-methoxy-2-((3-methyl-4-(1-methylpiperidin-4-yl)phenyl)amino)pyrimidine-5-carboxamide] | 100 to 500 nM | ≤ 10 nM
13 | COc1nc(Nc2ccc(C3CCN(C)CC3)c(Cl)c2)ncc1C(=O)Nc1c(Cl)cccc1Br [Compound 215, N-(2-bromo-6-chlorophenyl)-2-[3-chloro-4-(1-methyl-4-piperidyl)phenylamino]-4-methoxy-5-pyrimidinecarboxamide] | 100 to 500 nM | ≤ 10 nM
14 | COc1nc(Nc2ccc(OCCCN(C)C)c(C)c2)ncc1C(=O)Nc1c(Cl)cccc1Cl [Compound 147, N-(2,6-dichlorophenyl)-2-((4-(3-(dimethylamino)propoxy)-3-methylphenyl)amino)-4-methoxypyrimidine-5-carboxamide] | > 1000 nM | ≤ 10 nM
15 | COc1nc(Nc2ccc(O[C@@H]3CCN(C)C3)c(C)c2)ncc1C(=O)Nc1c(Cl)ccc(O)c1C [Compound 153, (R)—N-(6-chloro-3-hydroxy-2-methylphenyl)-4-methoxy-2-((3-methyl-4-((1-methylpyrrolidin-3-yl)oxy)phenyl)amino)pyrimidine-5-carboxamide] | ≤ 100 nM | ≤ 10 nM
16 | COc1nc(Nc2ccc(N3CCN(C)CC3)cc2)ncc1C(=O)Nc1c(Cl)cccc1Cl [Compound 111, N-(2,6-dichlorophenyl)-4-methoxy-2-((4-(4-methylpiperazin-1-yl)phenyl)amino)pyrimidine-5-carboxamide] | 100 to 500 nM | ≤ 10 nM
17 | COc1nc(Nc2ccc(OC3CCN(C)CC3)c(C)c2)ncc1C(=O)Nc1c(Cl)ccc(O)c1C [Compound 152, N-(6-chloro-3-hydroxy-2-methylphenyl)-4-methoxy-2-((3-methyl-4-((1-methylpiperidin-4-yl)oxy)phenyl)amino)pyrimidine-5-carboxamide] | 100 to 500 nM | ≤ 10 nM
18 | COc1nc(Nc2cc(C)c(N3CCC(N(C)C)CC3)c(F)c2)ncc1C(=O)Nc1c(Cl)cccc1Br [Compound 214] | 100 to 500 nM | ≤ 10 nM
19 | COc1nc(Nc2ccc(C3CCN(C)CC3)c(C)c2)ncc1C(=O)Nc1c(Br)cccc1C#N [Compound 134, N-(2-bromo-6-cyanophenyl)-4-methoxy-2-((3-methyl-4-(1-methylpiperidin-4-yl)phenyl)amino)pyrimidine-5-carboxamide] | 100 to 500 nM | ≤ 10 nM
20 | Cc1cc(Nc2ncc(C(=O)Nc3c(Cl)cccc3Cl)c(OCC(F)(F)F)n2)ccc1C1CCN(C)CC1 [Compound 104, N-(2,6-dichlorophenyl)-2-{[3-methyl-4-(1-methylpiperidin-4-yl)phenyl]amino}-4-(2,2,2-trifluoroethoxy)pyrimidine-5-carboxamide] | 100 to 500 nM | ≤ 10 nM
21 | COc1nc(Nc2ccc(O[C@@H]3CCN(C)C3)c(C)c2)ncc1C(=O)Nc1c(Cl)cccc1Br [Compound 211] | 100 to 500 nM | ≤ 10 nM
22 | CCOc1nc(Nc2ccc(OC3CCNCC3)c(C)c2)ncc1C(=O)Nc1c(Cl)cccc1Br [Compound 221] | 100 to 500 nM | ≤ 10 nM
23 | CCOc1nc(Nc2ccc(OC3CCN(C)CC3)c(C)c2)ncc1C(=O)Nc1c(Cl)cccc1Br [Compound 222] | 100 to 500 nM | ≤ 10 nM
24 | COc1nc(Nc2ccc(C3CCN(C)CC3)c(C)c2)ncc1C(=O)Nc1ccccc1C(F)(F)F [Compound 114, 4-methoxy-2-((3-methyl-4-(1-methylpiperidin-4-yl)phenyl)amino)-N-(2-(trifluoromethyl)phenyl)pyrimidine-5-carboxamide] | > 1000 nM | ≤ 10 nM
